Data taken from US20220241310A1, “THIARABINE- AND THIARABINE PRODRUG-BASED TREATMENTS” (Southern Research Institute, priority 2019, published 2022).

Key:
[1] = test system: MC38^hPDL-1 colon tumor cells; assay: MC38^hPDL-1 tumor response to mono- and combination-therapy in mice; assay type: in vivo, C57BL/6^hPD-1/hPD-L1 mice; conditions: combination with Keytruda; subcutaneous MC38^hPDL-1 tumor; FIG. 1A/1B
Experimental: A total of 32 C57BL/6^hPD-1/hPD-L1 mice, male and female, were injected subcutaneously with five hundred thousand (5×10^5) MC38^hPDL-1 colon tumor cells in the right flank at a volume of 0.1 mL. Innoculation day was marked as Day 0. Tumor measurements were taken biweekly for the duration of the study. Tumor weights (mg) were calculated using the equation for an ellipsoid sphere: (l×w^2)/2=mm^3, where l and w refer to the larger and smaller dimensions collected at each measurement and assuming unit density (1 mm^3=1 mg). Target tumor weight for initiation of treatment was approximately 75 to 144 mg for a target group mean tumor weight of approximately 110 mg. The animals on study were randomly assigned to four groups to contain two males and six females. Dosing began on day 13 of the study. Re-challenge of MC38^1-1 in the opposite flank of tumor-free mice from the Keytruda and combination groups occurred on day 31 of the study and mice were monitored for tumor growth for the duration of the study.
Thiarabine: The 500 mg vial was reconstituted with 4.6 mL of saline (0.9% Sodium chloride) to yield a 100 mg/mL stock solution. Each day of dosing, the 100 mg/mL solution was diluted to […] with saline. The dose concentration was 10 mL/kg with a dose volume of 0.1 mL for dose of 30 mg/kg. Mice were dosed IP Q2Dx10. […]

OVCAR-3 = assay: IC50 in OVCAR-3 tumor cell model; assay type: cell-based; conditions: human ovarian cancer model
Source text: (§1) Representative IC50 values of thiarabine and related prodrugs tested in two tumor cell models, a humanized murine colorectal model MC38^hPDL-1 and a human ovarian cancer model OVCAR-3, are shown in Table 1 below.

MC38^hPDL-1 = assay: IC50 in MC38^hPDL-1 tumor cell model; assay type: cell-based; conditions: Mus musculus, MC38-hPD-L1; humanized murine colorectal model; read-out: MC38^huPD=L1 (IC50 μM)
Source text: as §1

SMILES	tumor volume over time [1]	IC50 (OVCAR-3) [µM]	IC50 (MC38^hPDL-1) [µM]
CC(C)OC(=O)[C@H](C)NP(=O)(OC[C@H]1S[C@@H](n2ccc(N)nc2=O)[C@@H](O)[C@@H]1O)Oc1ccccc1 (single isomer, unassigned) [SRI-41302]	total tumor regression	1.25	15.8
CCC(CC)COC(=O)[C@H](C)NP(=O)(OC[C@H]1S[C@@H](n2ccc(N)nc2=O)[C@@H](O)[C@@H]1O)Oc1ccccc1 (stereo partly drawn) [SRI-44340, ethylbutyl ((((2R,3S,4S,5R)-5-(4-amino-2-oxopyrimidin-1(2H)-yl)-3,4-dihydroxytetrahydrothiophen-2-yl)methoxy)(phenoxy)phosphoryl)-1-alaninate]		0.65	
Nc1ccn([C@@H]2S[C@H](CO)[C@@H](O)[C@@H]2O)c(=O)n1 [Thiarabine]	total tumor regression	1.13	2.71
